Experimental data reported in paper PMC6220272, “Scaffold-Hopping from Synthetic Drugs by Holistic Molecular Representation” (Scientific Reports, 2018).

What was measured:
Format in all cases: cell-based
[1] = target: T1, human RXRβ ligand binding domain (Gal4 hybrid receptor) (Homo sapiens, UniProt P28702); assay: Gal4 hybrid reporter gene assay RXRβ; conditions: HEK293T cells, n ≥ 4, read-out: RXRβ EC50 ± SEM
T1 construct: expressed in transfected cells; host or cells: HEK293T
T1 sequence (P28702 296-529 limits assumed): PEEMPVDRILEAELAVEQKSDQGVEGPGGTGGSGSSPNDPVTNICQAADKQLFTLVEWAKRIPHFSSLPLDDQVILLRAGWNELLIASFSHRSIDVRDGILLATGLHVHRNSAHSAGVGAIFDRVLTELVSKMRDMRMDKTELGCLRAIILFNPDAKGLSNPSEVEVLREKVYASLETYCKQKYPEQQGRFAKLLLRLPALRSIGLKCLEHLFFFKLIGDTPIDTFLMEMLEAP
Experimental: (§1) The 20 top-ranked synthetic compounds were selected and tested in vitro for their modulatory activity on RXR (Supplementary Table 1). Compounds were tested in specific hybrid reporter gene assays for RXRα, RXRβ and RXRγ modulation[39]–[41]. These assays rely on a constitutively expressed hybrid receptor composed of the respective human RXR ligand binding domain and the DNA binding domain of the Gal4 receptor from yeast. A Gal4 responsive firefly luciferase was used as reporter gene and constitutively expressed renilla luciferase served as internal control for transfection efficiency and test compound toxicity. All selected compounds were tested at 50 µM concentration on RXRα and for active compounds (Supplementary Fig. 1), dose response curves were recorded on all three RXR subtypes.
(§2) The Gal4 hybrid reporter gene assays were conducted as reported previously[39]–[41]. pFA-CMV-based constructs comprising the ligand binding domain of the human nuclear receptor in question were used as expression plasmids for the chimera receptors. pFR-Luc (Stratagene) served as reporter plasmid and pRL-SV40 (Promega) for normalization of transfection efficiency and cell growth. The assays were conducted in 96-well format in HEK293T cells that were cultured as described previously[39]–[41]. Transient transfection was carried out using Lipofectamine LTX reagent (Invitrogen) according to the manufacturer’s protocol. After transfection and incubation with test compounds (12–14 h), cells were assayed for luciferase activity using Dual-Glo™ Luciferase Assay System (Promega) according to the manufacturer’s protocol. Luminescence was measured with an Infinite M200 luminometer (Tecan Deutschland GmbH). All hybrid assays were validated with reference agonists (PPARα: GW7647; PPARγ: pioglitazone; PPARδ: L165,041; LXRα/β: T0901317; FXR: GW4064; RXRs: bexarotene; RARs: tretinoin; VDR: calcitriol; CAR: CITCO; PXR: SR12813) which yielded EC50 values in agreement with literature. The assays were conducted in duplicates with at least two independent repeats and for active compounds repeated without hybrid receptor coding DNA for every test compound at the highest tested concentration to exclude unspecific effects.
(§3) Supplementary Figure 2. Dose-response curves for RXRα activation. Compounds were tested in specific hybrid reporter gene assays for RXRα, RXRβ and RXRγ modulation.^1–3 These assays rely on a constitutively expressed hybrid receptor composed of the respective human RXR ligand binding domain and the DNA binding domain of the Gal4 receptor from yeast. A Gal4 responsive firefly luciferase was used as reporter gene and constitutively expressed renilla luciferase served as internal control for transfection efficiency and test compound toxicity. […]

[2] = target: T2, human RXRγ ligand binding domain (Gal4 hybrid receptor) (Homo sapiens, UniProt P48443); assay: Gal4 hybrid reporter gene assay RXRγ; conditions: HEK293T cells, n ≥ 4, read-out: RXRγ EC50 ± SEM
T2 construct: expressed in transfected cells; host or cells: HEK293T
T2 sequence (P48443 231-459 limits assumed): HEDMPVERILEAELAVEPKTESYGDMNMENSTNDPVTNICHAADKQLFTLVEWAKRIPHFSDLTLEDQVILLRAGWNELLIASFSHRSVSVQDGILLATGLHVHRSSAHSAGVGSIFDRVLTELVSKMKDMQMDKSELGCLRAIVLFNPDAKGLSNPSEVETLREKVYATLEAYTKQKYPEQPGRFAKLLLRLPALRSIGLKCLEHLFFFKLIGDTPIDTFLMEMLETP
Experimental: as §1, §2, §3

[3] = target: T3, LXRβ (Homo sapiens, UniProt P55055); assay: Gal4 hybrid reporter gene assay LXRβ (selectivity profiling)
T3 construct: expressed in transfected cells; host or cells: HEK293T
T3 sequence (P55055 222-460 limits assumed): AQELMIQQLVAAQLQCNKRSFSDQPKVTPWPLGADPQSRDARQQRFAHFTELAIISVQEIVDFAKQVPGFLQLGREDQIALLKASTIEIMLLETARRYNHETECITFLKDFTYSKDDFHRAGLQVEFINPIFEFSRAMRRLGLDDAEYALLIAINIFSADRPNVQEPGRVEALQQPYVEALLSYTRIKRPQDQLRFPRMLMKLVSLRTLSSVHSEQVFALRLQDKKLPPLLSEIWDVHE
Experimental: (§4) Moreover, 7 was characterized for its ability to modulate RXR target gene expression under more physiological conditions. Hepatoma cells (HepG2) were incubated with 7 (30 µM) or reference RXR agonist bexarotene (9, 1 µM) for eight hours and mRNA expression of RXR regulated genes ATP-binding cassette transporter A1 (ABCA1), angiopoietin like protein 4 (ANGPTL4) and apolipoprotein E (ApoE) was analysed by quantitative real-time PCR.
as §2, with “All hybrid assays were validated with reference agonists (PPARα: GW7647; PPARγ: pioglitazone; PPARδ: L165,041; LXRα/β: T0901317; FXR: GW4064; RXRs: bexarotene; RARs: tretinoin; VDR: calcitriol; CAR: CITCO; PXR: SR12813) which yielded EC50 values in agreement with literature. The assays were conducted in duplicates with at least two independent repeats and for active compounds repeated without hybrid receptor coding DNA for every test compound at the highest tested concentration to exclude unspecific effects.” left out

[4] = target: T4, RARγ (Homo sapiens, UniProt P13631); assay: Gal4 hybrid reporter gene assay RARγ (selectivity profiling)
T4 construct: expressed in transfected cells; host or cells: HEK293T
T4 sequence (P13631 185-419 limits assumed): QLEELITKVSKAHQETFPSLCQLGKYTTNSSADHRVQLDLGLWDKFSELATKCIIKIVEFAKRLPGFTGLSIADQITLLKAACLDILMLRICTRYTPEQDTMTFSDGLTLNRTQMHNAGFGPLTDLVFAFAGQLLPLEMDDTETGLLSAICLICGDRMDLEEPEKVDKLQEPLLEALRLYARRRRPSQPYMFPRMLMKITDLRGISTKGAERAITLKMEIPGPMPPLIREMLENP
Experimental: as §4
as §2, with “All hybrid assays were validated with reference agonists (PPARα: GW7647; PPARγ: pioglitazone; PPARδ: L165,041; LXRα/β: T0901317; FXR: GW4064; RXRs: bexarotene; RARs: tretinoin; VDR: calcitriol; CAR: CITCO; PXR: SR12813) which yielded EC50 values in agreement with literature. The assays were conducted in duplicates with at least two independent repeats and for active compounds repeated without hybrid receptor coding DNA for every test compound at the highest tested concentration to exclude unspecific effects.” left out

[5] = system: angiopoietin like protein 4 (ANGPTL4) mRNA in HepG2 cells; assay: Target gene quantification (quantitative real-time PCR), ANGPTL4; conditions: HepG2, 7 at 30 µM versus bexarotene at 1 µM, 8 h, qRT-PCR
Experimental: as §4
HepG2 cells were incubated with test compound 7 (30 µM) or bexarotene (1 µM) as positive control each dissolved in 0.1% DMSO or 0.1% DMSO alone as untreated control for 8 h, harvested, washed with cold phosphate buffered saline (PBS) and then directly used for RNA extraction with the Total RNA Mini Kit (R6834-02, Omega Bio-Tek, Inc., Norcross, GA, USA). 2 µg RNA were reverse-transcribed into cDNA using the High-Capacity cDNA Reverse Transcription Kit (4368814, Thermo Fischer Scientific, Inc.). RXR target gene expression was evaluated by quantitative real time PCR analysis with a StepOnePlus™ System (Life Technologies, Carlsbad, CA, USA) using PowerSYBRGreen (Life Technologies; 12.5 µl per well) and the primers reported in Supplementary Table 4[58]. […] The expression was quantified by the comparative ∆∆Ct method. […] Results are expressed as mean ± standard error of the mean (SEM) relative mRNA expression compared to DMSO (0.1%) control which was set as 1.

Compound: CC(C)(C)c1cc(/C=N/NC(=O)c2ccc(N)cc2)cc(C(C)(C)C)c1 [Compound 7]
- EC50 [1]: 25.1 ± 0.1 µM
- EC50 [2]: 28.2 ± 0.1 µM
- activity on LXRβ [3]: no activity
- activity on RARγ [4]: no activity
- induction of ANGPTL4 mRNA expression [5]: comparable efficacy as RXR agonist bexarotene
